# According to patent US10674724B2, “Method of activating immune response in plants” (priority 2012, dated 2020):
# Legend:
# [1] = tested on: transcription activity of Δ513; test: in vivo plant transcription assay, Δ513:DB co-expressed with BTB/POZ; format: cell-based, Arabidopsis thaliana; conditions: 1 mM salicylic acid in medium
# Description: (§1) Arabidopsis thaliana (Columbia) leaves were harvested from four-week-old plants grown at 21° C. (day) and 18° C. (night) with a ten-hour photoperiod and transferred to Petri dishes containing MS salts and micronutrients supplemented with B5 vitamins, 1% sucrose and 0.8% agar at a pH of 5.8. […] Coating of the gold particles and general procedures and preparation of the biolistic experiments were as per the manufacturer's instructions (Bio-Rad). After bombardment, leaves were kept in the conditions described above for a period of 24 hours before assaying. Enzyme assays were performed using the Dual-Luciferase Reporter Assay® system (Promega) following the manufacturer's instructions. Luminescence was measured on a Berthold Lumat LB9507 Luminometer (Bad Wildbad, Germany) and the data obtained represented the value of the reporter gene divided by the value of the internal standard and expressed as Relative Luciferase Units. To increase signal-to-noise ratio in some experiments, qPCR was performed to measure the amount of Firefly and Renilla Luciferases mRNA. The data was reported as Relative Expression and represented the value of the reporter mRNA divided by the value of the internal standard mRNA. The ratio obtained for Ga14 DB was assigned an arbitrary value of 1. […]
# It was then determined whether or not the BTB/POZ could modulate the transcriptional properties of Δ513 (FIG. 5F). […]
# NPR1 = molecular target: T1, NPR1 (Arabidopsis thaliana, UniProt P93002); format: binding; conditions: equilibrium dialysis
# T1 construct: made in house; host or cells: E. coli
# Description: Given the dissociation reaction:
# The data was analyzed by non-linear regression using GraphPad PRISM 4 and fitted to a one-site-binding rectangular hyperbola.
# [2] = molecular target: T2, NPR1-dependent oligomer on the PR-1 promoter (Arabidopsis thaliana, UniProt P93002); test: Cross-linked-chromatin chromatography (3C Method); format: in vivo; conditions: wild-type plants, region −734 to −833
# T2 construct: in wild-type plants (WT), such an oligomer forms on the PR-1 promoter; endogenous in cells; host or cells: wild-type Arabidopsis plants
# T2 sequence (P93002 1-593): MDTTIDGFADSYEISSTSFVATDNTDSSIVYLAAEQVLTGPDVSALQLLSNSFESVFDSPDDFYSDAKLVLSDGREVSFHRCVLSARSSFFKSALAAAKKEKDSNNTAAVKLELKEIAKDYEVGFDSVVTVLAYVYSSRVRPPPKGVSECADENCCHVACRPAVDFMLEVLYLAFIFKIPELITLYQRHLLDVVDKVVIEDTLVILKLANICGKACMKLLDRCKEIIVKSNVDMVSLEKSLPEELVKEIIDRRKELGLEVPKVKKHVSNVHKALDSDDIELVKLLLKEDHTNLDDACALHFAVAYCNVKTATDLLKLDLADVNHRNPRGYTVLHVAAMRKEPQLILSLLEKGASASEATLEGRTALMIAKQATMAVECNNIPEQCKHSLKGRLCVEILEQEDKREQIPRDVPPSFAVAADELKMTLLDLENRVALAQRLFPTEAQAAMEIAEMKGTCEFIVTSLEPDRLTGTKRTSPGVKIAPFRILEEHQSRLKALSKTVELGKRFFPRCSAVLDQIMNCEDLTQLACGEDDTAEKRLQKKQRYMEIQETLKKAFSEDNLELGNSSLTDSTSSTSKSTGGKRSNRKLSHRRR
# Description: Plant treatment, cross-linking, sonication, and cross-linking reversal were performed as for chromatin-immunoprecipitation (Rochon et al., 2006). Chromatography was as described under “Chromatography”. qPCR was performed with PR1 and Ubiquitin5 primers. PR-1 values were normalized against Ubiquitin5 (see Table 1 for primer sequence).
# Although there are no decisive methods to test the stoichiometry of a protein in vivo, it was determined whether or not NPR1-dependent oligomers form on DNA in vivo by combining chromatin cross-linking, gel filtration, and qPCR (the 3C Method). The rationale was that, if an NPR1-dependent oligomer forms on the PR1 promoter in vivo, the presence of PR1 should be detectable by qPCR in the void fraction of an S300 after the chromatin had been cross-linked and sheared by sonication.
# Δ513 = molecular target: T3, Δ513 (Arabidopsis thaliana, UniProt P93002); test: Sephacryl S100 gel filtration of Strep-tagged Δ513; format: biochemical; conditions: 1 mM SA
# T3 construct: made in house; host or cells: E. coli
# T3 sequence (P93002 513-593): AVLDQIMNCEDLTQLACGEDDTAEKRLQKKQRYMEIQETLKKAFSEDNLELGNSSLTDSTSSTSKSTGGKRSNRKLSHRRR
# Description: Strep-tagged purified proteins in a final volume of 2 ml were subjected to gel filtration analysis on the Sephacryl S100 HR or Sephacryl S300 HR packed in 50 cm long HR 16 columns (GE Health) and equilibrated with S300 chromatography buffer (50 mM HEPES, pH 7.4, 250 mM NaCl. Elutions, in 0.5 ml fractions, were performed in the same buffer at a flow rate of 0.8 ml/min. Where indicated, proteins were incubated with 1 mM SA, 1 mM catechol, 1 mM 4-hydroxy benzoic acid, or 1 mM methyl-salicylate at room temperature for 30 min prior to chromatography as described above with the exception that the chromatography buffer was supplemented with 1 mM SA, 1 mM catechol, 1 mM 4-hydroxy benzoic acid, or 1 mM methyl-salicylate, respectively. In the case of the EDTA treatment, NPR1 was stripped of its metal by a 50 mM EDTA treatment of 30 min, followed by an incubation of 30 min with 1 mM SA prior to gel filtration. In this case, the chromatography buffer was supplemented with 1 mM SA.
# BTB/POZ-Δ513 interaction = molecular target: T4, BTB/POZ-Δ513 interaction (Arabidopsis thaliana, UniProt P93002); test: in vivo plant two-hybrid assay; format: cell-based; parameters: expressed in transfected cells; host or cells: Arabidopsis thaliana (Columbia) leaves, biolistic bombardment; conditions: 1 mM salicylic acid in medium, reporter mRNA
# T4 sequence (P93002 513-593): T3 sequence (P93002 513-593)
# Description: as §1, with “mRNA.” for “mRNA. The data was reported as Relative Expression and represented the value of the reporter mRNA divided by the value of the internal standard mRNA. The ratio obtained for Ga14 DB was assigned an arbitrary value of 1.”
# Since BTB/POZ domains can be autoinhibitory, it was determined whether or not the NPR1 BTB/POZ can interact with the NPR1 transactivation domain. […] Here the reporter gene was monitored through its mRNA as opposed to its enzyme activity, which provided a greater signal-to-noise ratio (see Experimental Procedures). […]
compound,measurement,setting,value
"O=C(O)c1ccccc1O [SA, Salicylic acid]",transcription activity of Δ513 co-expressed with BTB/POZ in SA-treated cells,[1],unaffected by the BTB/POZ
same,amount of SA bound to NPR1 above a no-protein experiment,NPR1,~4 orders of magnitude
same,maximum binding (Bmax),NPR1; saturation binding,0.96±0.01 mol SA per mol NPR1
same,"NPR1-dependent oligomer on the PR-1 promoter (void fraction, qPCR)",[2],not after a treatment with SA
same,stoichiometry of Δ513 after SA treatment (S100),Δ513,consistent with that of a dimer
same,BTB/POZ-Δ513 interaction in plant two-hybrid,BTB/POZ-Δ513 interaction,disrupts the BTB/POZ-Δ513 association
